Columns and labels:
α-glucosidase [1] = target: T1, α-glucosidase (Saccharomyces cerevisiae, UniProt P53341); experiment: Anti-α-glucosidase assay (p-nitrophenyl-α-D-glucopyranoside substrate, absorbance 405 nm); format: biochemical; details: for Inhibation: IC50 determination curve; for inhibition at 750 µM: read-out: In (%), inhibition percentage against α-glucosidase; for inhibitory activity, times more potent than acarbose: ratio of IC50 values vs acarbose
T1 construct: the yeast form of α-glucosidase, which was extracted from Saccharomyces cerevisiae; purchased Sigma-Aldrich; host or cells: Saccharomyces cerevisiae (extracted)
Method: After this time, the p-nitrophenyl-α-D-glucopyranoside (25 μL, 4 mM) was added to the latter plate and allowed to incubate at 37 °C for 20 min. […] The percentage of inhibition (% inhibition) for each sample was calculated using the formula “[(Abs control − Abs sample)/Abs control] × 100”, and IC50 values were obtained from non-linear regression curve using the Logit method.[24]

α-glucosidase [2] = target: T1, α-glucosidase; experiment: Kinetic study (Lineweaver–Burk method); format: biochemical; details: Lineweaver–Burk plots
Method: Then, p-nitrophenyl-α-D-glucopyranoside at various concentrations (1–4 mM) was added to initiate the enzymatic reaction.
The type of inhibition mode was indicated by Lineweaver–Burk plots.

[3] = IC50 (from IC50 determination curves, supplement), logarithmic fit of inhibition vs Conc., unit inferred
[4] = IC50, yeast α-glucosidase, mean ± SD, at least three experiments

T1 sequence (P53341 whole entry): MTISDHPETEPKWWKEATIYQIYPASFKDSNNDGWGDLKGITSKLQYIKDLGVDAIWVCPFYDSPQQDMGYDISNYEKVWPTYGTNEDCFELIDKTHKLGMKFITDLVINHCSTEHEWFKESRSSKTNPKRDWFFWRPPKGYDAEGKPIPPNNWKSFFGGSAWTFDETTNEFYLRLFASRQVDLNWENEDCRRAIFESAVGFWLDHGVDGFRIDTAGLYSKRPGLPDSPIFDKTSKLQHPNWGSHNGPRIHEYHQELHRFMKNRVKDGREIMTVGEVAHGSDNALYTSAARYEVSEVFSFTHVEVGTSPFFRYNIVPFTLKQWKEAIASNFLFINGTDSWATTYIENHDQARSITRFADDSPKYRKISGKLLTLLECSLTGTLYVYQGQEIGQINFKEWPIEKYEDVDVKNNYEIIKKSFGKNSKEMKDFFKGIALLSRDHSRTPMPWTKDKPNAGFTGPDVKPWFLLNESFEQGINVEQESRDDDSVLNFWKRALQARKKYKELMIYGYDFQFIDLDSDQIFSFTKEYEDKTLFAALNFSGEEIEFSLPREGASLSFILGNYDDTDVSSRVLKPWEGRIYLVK

| SMILES | Inhibation (α-glucosidase [1]; Conc. 15 (unit not given)) | Inhibation (α-glucosidase [1]; Conc. 30 (unit not given)) | Inhibation (α-glucosidase [1]; Conc. 60 (unit not given)) | Inhibation (α-glucosidase [1]; Conc. 90 (unit not given)) | Inhibation (α-glucosidase [1]; Conc. 120 (unit not given)) | IC50 (α-glucosidase [1]; [3]) | inhibition at 750 µM (α-glucosidase [1]) | potency relative to 4-methoxy derivative 13f (α-glucosidase [1]; more potent than 13f) | IC50 (α-glucosidase [1]; [4]) | inhibitory activity, times more potent than acarbose (α-glucosidase [1]) | effect of increasing inhibitor concentration on Vmax and Km (α-glucosidase [2]) | type of inhibition mode (α-glucosidase [2]) |
| --- | --- | --- | --- | --- | --- | --- | --- | --- | --- | --- | --- | --- |
| Cc1ccc(NC(=O)Cn2cc(COc3ccc(/C=N/Nc4nnc(-c5ccccc5)c(-c5ccccc5)n4)cc3)nn2)c(C)c1 [Compound 13d, (E)-N-(2,4-Dimethylphenyl)-2-(4-((4-((2-(5,6-diphenyl-1,2,4-triazin-3-yl)hydrazineylidene)methyl)phenoxy)methyl)-1H-1,2,3-triazol-1-yl)acetamide] | 61.12 | 65.17 | 68 | 72 | 74 | < 15 µM | 75% |  |  |  |  |  |
| CCc1ccc(NC(=O)Cn2cc(COc3ccc(/C=N/Nc4nnc(-c5ccccc5)c(-c5ccccc5)n4)cc3)nn2)cc1 [Compound 13e, (E)-2-(4-((4-((2-(5,6-Diphenyl-1,2,4-triazin-3-yl)hydrazineylidene)methyl)phenoxy)methyl)-1H-1,2,3-triazol-1-yl)-N-(4-ethylphenyl)acetamide] | 69.6 | 82.93 | 95 |  |  | < 15 µM | 100% | around 3 fold |  |  |  |  |
| COc1ccc(NC(=O)Cn2cc(COc3ccc(/C=N/Nc4nnc(-c5ccccc5)c(-c5ccccc5)n4)cc3)nn2)cc1 [Compound 13f, (E)-2-(4-((4-((2-(5,6-Diphenyl-1,2,4-triazin-3-yl)hydrazineylidene)methyl)phenoxy)methyl)-1H-1,2,3-triazol-1-yl)-N-(4-methoxyphenyl)acetamide] | 56 | 72.67 | 89 | 98 |  | 10.9 µM | 100% |  | 10.9 ± 0.24 µM |  |  |  |
| O=C(Cn1cc(COc2ccc(/C=N/Nc3nnc(-c4ccccc4)c(-c4ccccc4)n3)cc2)nn1)Nc1ccccc1F [Compound 13g, (E)-2-(4-((4-((2-(5,6-Diphenyl-1,2,4-triazin-3-yl)hydrazineylidene)methyl)phenoxy)methyl)-1H-1,2,3-triazol-1-yl)-N-(2-fluorophenyl)acetamide] | 69.05 | 72.24 | 76 | 78 |  | < 15 µM | 79% |  |  |  |  |  |
| O=C(Cn1cc(COc2ccc(/C=N/Nc3nnc(-c4ccccc4)c(-c4ccccc4)n3)cc2)nn1)Nc1ccccc1Cl [Compound 13h, (E)-N-(2-Chlorophenyl)-2-(4-((4-((2-(5,6-diphenyl-1,2,4-triazin-3-yl)hydrazineylidene)methyl)phenoxy)methyl)-1H-1,2,3-triazol-1-yl)acetamide] | 75.34 | 79.31 | 83 | 86 |  | < 15 µM | 87% |  |  | ~3947 fold |  |  |
| O=C(Cn1cc(COc2ccc(/C=N/Nc3nnc(-c4ccccc4)c(-c4ccccc4)n3)cc2)nn1)Nc1cccc(Cl)c1 [Compound 13i, (E)-N-(3-Chlorophenyl)-2-(4-((4-((2-(5,6-diphenyl-1,2,4-triazin-3-yl)hydrazineylidene)methyl)phenoxy)methyl)-1H-1,2,3-triazol-1-yl)acetamide] | 53.4 | 74.73 | 84 | 98 |  | 11.7 µM | 100% |  | 11.7 ± 0.18 µM |  |  |  |
| O=C(Cn1cc(COc2ccc(/C=N/Nc3nnc(-c4ccccc4)c(-c4ccccc4)n3)cc2)nn1)Nc1ccc(Cl)cc1 [Compound 13j, (E)-N-(4-Chlorophenyl)-2-(4-((4-((2-(5,6-diphenyl-1,2,4-triazin-3-yl)hydrazineylidene)methyl)phenoxy)methyl)-1H-1,2,3-triazol-1-yl)acetamide] | 73.02 | 75.43 | 79 | 81 |  | < 15 µM | 83% |  | 0.12 ± 0.02 µM |  | decrease in both Vmax and Km values | uncompetitive α-glucosidase inhibitor |
| O=C(Cn1cc(COc2ccc(/C=N/Nc3nnc(-c4ccccc4)c(-c4ccccc4)n3)cc2)nn1)Nc1ccc(Br)cc1 [Compound 13k, (E)-N-(4-Bromophenyl)-2-(4-((4-((2-(5,6-diphenyl-1,2,4-triazin-3-yl)hydrazineylidene)methyl)phenoxy)methyl)-1H-1,2,3-triazol-1-yl)acetamide] | 49.91 | 56.12 | 60 | 65 | 67 | 15.3 µM | 69% |  | 15.3 ± 0.29 µM |  |  |  |
| O=C(Cn1cc(COc2ccc(/C=N/Nc3nnc(-c4ccccc4)c(-c4ccccc4)n3)cc2)nn1)Nc1ccccc1[N+](=O)[O-] [Compound 13l, (E)-2-(4-((4-((2-(5,6-Diphenyl-1,2,4-triazin-3-yl)hydrazineylidene)methyl)phenoxy)methyl)-1H-1,2,3-triazol-1-yl)-N-(2-nitrophenyl)acetamide] | 37.76 | 48.45 | 59 | 65 | 67 | 34.2 µM | 69% |  | 34.2 ± 0.57 µM | 21.9 fold |  |  |
| O=C(Cn1cc(COc2ccc(/C=N/Nc3nnc(-c4ccccc4)c(-c4ccccc4)n3)cc2)nn1)NCc1ccccc1 [Compound 13m, (E)-N-Benzyl-2-(4-((4-((2-(5,6-diphenyl-1,2,4-triazin-3-yl)hydrazineylidene)methyl)phenoxy)methyl)-1H-1,2,3-triazol-1-yl)acetamide] | 70 | 80 | 87 | 88.3 | 89 |  | 90% |  |  |  |  |  |
| O=C(Cn1cc(COc2ccc(/C=N/Nc3nnc(-c4ccccc4)c(-c4ccccc4)n3)cc2)nn1)NCCc1ccccc1 [Compound 13n, (E)-2-(4-((4-((2-(5,6-Diphenyl-1,2,4-triazin-3-yl)hydrazineylidene)methyl)phenoxy)methyl)-1H-1,2,3-triazol-1-yl)-N-phenethylacetamide] | 79.27 | 84.67 | 90 | 93 | 98 | < 15 µM | 100% |  |  |  |  |  |
